This is an account of results in patent publication US10292991B2, “Small molecule therapeutic compounds that reduce the incidence of intracerebral hemorrhage and brain microhemorrhages” (St. Michaels Hospital, priority 2016, dated 2019).

The test system of experiment [1] is zebrafish embryos treated with LPS. Briefly: LPS-induced ICH/BMH and mortality in zebrafish embryos. It is filed as in vivo. To be noted: 1 μmol/L in fish water; LPS 200 mg/mL; preliminary data. The procedure: Experiment 1: LPS-induced ICH/BMH in zebrafish embryos. The lead compounds will be tested in a LPS model of ICH/BMH to determine if rescue of the ICH/BMH phenotype is a general property of these compounds or it is specific to statin-induced ICH/BMH. […] LPS concentration used was 200 mg/mL. […] Experiments are ongoing to define the rescuing effects of artemether on LPS-induced brain hemorrhage. Double transgenic zebrafish (Gata1:DsRed/Flk1:GFP) with green fluorescent vessel and red fluorescent red blood cells are used. Arrow points to hemorrhage.

Experiment [2] concerns Hmgcrb - splice morpholino-induced hemorrhage in zebrafish. Put plainly: Hmgcrb morpholino-induced hemorrhage in zebrafish, rescue by drugs. It is filed as in vivo, zebrafish (Danio rerio). The following applies: Danio rerio; Table 6. The procedure:
(§1) Danieau buffer (58 mM NaCl, 0.7 mM KCl, 0.4 mM MgSO4, 0.6 mM Ca(NO3)2, 5.0 mM HEPES, pH 7.6) was used to dilute the MO solutions to 0.2 mM final concentration. Individual wells were placed on a 1.0% agarose plate, in which the embryos were positioned. Afterwards, the MO solution was injected through the cell yolk into embryos of 1 to 4 cell-stage. The injected quantities varied from 0.5 to 15 ng.
The first three morpholino pairs were good for the efficacy study. Efficacy assays were performed using Artemether (ARM, Sigma) and artemesunate (ART, GMP). […] Treating these morphants with the drugs rescued the ICH phenotype.

Experiment [3] has as its system Pak2a - exon8 morpholino-induced hemorrhage in zebrafish. Briefly: Pak2a morpholino-induced hemorrhage in zebrafish, rescue by drugs. It is filed as in vivo, zebrafish (Danio rerio). To be noted: Danio rerio; Table 6. The procedure:
as §1
Another MO was designed to block the splice-donor sites after exon 8 in pak2a. Pak2a is the gene mutated in the rhdmi149 zebrafish mutant that develops ICH/BMH.
Efficacy assays were performed using Artemether (ARM, Sigma) and artemesunate (ART, GMP).

Experiment [4] has as its system VE-Cadherin (Cdh5) mRNA. Briefly: qRT-PCR of VE-cadherin mRNA in atorvastatin-treated zebrafish larvae. To be noted: 1 μmol/L atorvastatin plus 500 nmol/L drug, n=3. In kind it is in vivo, zebrafish (Danio rerio). The procedure: (§2) qRT-PCR was used to assess relative expression of selected genes (an average of two biological trial and three technical replicates and each trial is a pool of 60 larvae/treatment), using β-actin as the housekeeping gene control. 3 dpf, Tg(Flk:GFP; Gata:dsRed) zebrafish larvae were used for RNA extraction and cDNA synthesis. Atorvastatin and drug treatment were performed as previously mentioned in drug screening. Total RNA was extracted from these larvae (a pool of 50-60 larvae/treatment) using the RNeasy extraction kit (Qiagen, Mississauga, ON, CAN) and treated with DNase. The concentration of total RNA was determined spectrophotometrically at 260/280 nm using a NanoDrop™ spectrophotometer. First-strand cDNA was synthesized from 1 μg of total RNA using random hexamer primers.
(§3) In each case, forward primer is shown on the top and reverse primer on the bottom.
(§4) PCR was carried out in a 20 μl total volume and included 1×PCR buffer, 1.25 mM MgCl2, 0.25 mM dNTP, 1 U Taq polymerase, 0.5 μmol/L forward, and reverse primers and 1 μl cDNA.
On the technique in general: Real-time PCR tracks product formation cycle by cycle.

Experiment [5] relates to Integrin β3 (Itgb3) mRNA. Briefly: qRT-PCR of integrin β3 mRNA in atorvastatin-treated zebrafish larvae. To be noted: 1 μmol/L atorvastatin plus 500 nmol/L drug, n=3. It is filed as in vivo, zebrafish (Danio rerio). The procedure:
as §2, §3, §4

Experiment [6] has as its system LPS-induced brain microbleeds in mice. Briefly: LPS-induced microbleeding mouse model. In kind it is in vivo, C57BL/6 mice. The text has this: An LPS-mediated micro bleeding model was created similar to that described in Lui et al (Liu S, Grigoryan M M, Vasilevko V et al. Comparative analysis of H&E and Prussian blue staining in a mouse model of cerebral microbleeds. J Histochem Cytochem 2014; 62:767-773). 9-10 week old C57BL/6 mice of both sexes were purchased from Charles River, and randomly assigned to control or treatment groups in equal numbers. LPS from Salmonella enterica (Sigma Aldrich, St Louis, Mo.) was reconstituted with PBS to a final concentration of 5 mg/ml. Both control (n=16) and drug treatment (n=16) groups received injections of 5 mg/kg LPS at times 0 and 24 hrs. The drug treatment group, further divided into high dose (n=4) and low dose (n=12), received intraperitoneal injections of artemether (ARM) (25 mg/kg for Low dose and 100 mg/kg for High dose) at time points −72, −48, −24, 0 and 24 hrs of LPS treatment. All mice were sacrificed at 48 hrs after the first LPS injection.
LPS-induced microbleeding model: All mice in the LPS study were deeply anesthetized with ketamine and xylazine and perfused through the left cardiac ventricle with NaCl, 0.9%, followed by 4% paraformaldehyde (PFA) in 1×PBS buffer and 2 mM Gadoteridol contrast agent for 24 hours. Each brain was transferred into a 1×PBS+0.02% sodium azide and 2 mM Gadoteridol contrast agent. Brains were kept in this immersion solution for 14 days before imaging to ensure proper contrast diffusion in the brain for magnetic resonance imaging (MRI) scan. […]
For the integrin ICH model, brains were taken out of the skull, cut at the mid-coronal position and assessed in a binary manner for whether or not there was any evidence of ICH. […]
Brains were scanned using 7T Burker MRI with 16-channel solenoid coils. […] Following the reconstruction of images and applying image distortion correction algorithms, all brains were processed and analyzed for total volume of brain and total volume of hemorrhage. Quantification was done using percentage of bleeding (normalized to each brain size). […] Lastly, quantification was done in a blinded fashion. […]

In the case of `CO[C@H]1O[C@@H]2O[C@@]3(C)CC[C@H]4[C@H](C)CC[C@@H]([C@H]1C)[C@@]24OO3` [Artemether], in experiment [1], the “Effect on fish survival (LPS-induced mortality)” value is given as “protective effect”. Moreover, the EC50 is 62.5 ± 8.3 nM in experiment [2] and 39.1 ± 8 nM in experiment [3]. Further, the “VE-cadherin transcription level (qRT-PCR)” value in experiment [4] is “upregulation”. In addition, the “Integrin β3 transcription level (qRT-PCR)” value in experiment [5] was “upregulation”. The “Total number of microbleeds inside the brain (H&E slices)” value in experiment [6] (LPS+ARM vs LPS, n=8, P<0.01) is “significantly reduced”. Also, the “Total surface microbleeds (stereomicroscope count)” value in experiment [6] (LPS+ARM vs LPS, n=8, P<0.05) is reported as “robust reduction”. In addition, in experiment [6] (vs model control group, n=8, P<0.05), the “Reduction of bleeding (MRI, total microbleed volume normalized to brain volume)” value is “about ⅔”.

The EC50 is the concentration giving half of the maximal effect. A high value points to a less potent agent.
